Patent publication US7049311B1, “Pyrrolbenzodiazepines” (Spirogen Limited, priority 1998, dated 2006)
Read-outs that look alike come from different tables or passages of the source.

Columns and labels:
[1] = tested on: SKOV-3; experiment: Ovarian carcinoma cytotoxicity assay; type: cell-based
Experimental: (§1) Compounds of the invention (and Anthramycin as a comparison) were evaluated for their cytotoxic activity in ovarian cell lines by Dr Lloyd R. Kelland's group at The Institute of Cancer Research, Sutton, UK. The five cell lines investigated were SKOV-3, A2780/A2780cisR and CH1/CH1cisR (cis R denotes that the cell line is resistant to cisplatin).
(§2) Single viable cells were seeded in growth medium (160 μL) in […] microtitre plates and allowed to attach overnight. […] After 96 hours, the medium was removed and the remaining cells fixed by exposure to 10% trichloroacetic acid on ice for 30 minutes. The wells were then washed 3-4 times with tap water, air dried overnight and treated with 100 μL of sulphorhodamine B (0.4%) dissolved in 1% acetic acid. Staining was allowed to continue for 10-15 minutes, then the wells were washed 3-4 times with 1% acetic acid, air dried and then added to Tris base (100 μL of 10 mM). Plates were then shaken and absorbance readings at 540 nm were determined using a plate reader. By using the Quattro-Pro software package, the IC50 values were calculated from plots of concentration versus percentage absorbance (compared with 8 untreated wells).

[2] = tested on: CH1cisR; experiment: Ovarian carcinoma cytotoxicity assay; type: cell-based
Experimental: as §1, §2

[3] = tested on: CH1; experiment: Ovarian carcinoma cytotoxicity assay; type: cell-based
Experimental: as §1, §2

[4] = tested on: A2780cisR; experiment: Ovarian carcinoma cytotoxicity assay; type: cell-based, human
Experimental: as §1, §2

[5] = tested on: A2780; experiment: Ovarian carcinoma cytotoxicity assay; type: cell-based, human
Experimental: as §1, §2

[6] = tested on: calf thymus DNA; experiment: DNA helix melting temperature assay; type: binding; conditions: [PBD]:[DNA] ratio of 1:5, calf thymus DNA
Experimental: The first assay, which is described in G. B. Jones, et al., Anti-Cancer Drug Des., 1990, 5, 249, which is incorporated herein by reference, determines the effect of the test compound on the helix melting temperature of DNA. This assay is designed to give an indication of the strength and extent of cross-linking of the DNA strands by the test compound (i.e. a measure of the stabilisation of the DNA upon ligand binding).
The melting temperature was determined for a 1:5 molar ratio of [ligand] [DNA], where the calf thymus DNA concentration is […] in aqueous sodium phosphate buffer (10 mM sodium phosphate+1 mM EDTA, pH 7.00±0.01). For calf thymus DNA at pH 7.00±0.01, the melting temperature is 67.83±0.06° C. (mean value from 30 separate determinations).

[7] = tested on: SK-MEL-2; experiment: NCI in vitro cytotoxicity screen; type: cell-based; conditions: Homo sapiens, SK-MEL-2, 48 h, read-out: LC50
Experimental: (§3) The National Cancer Institute (NCI), Bethesda, Md., USA has available an in vitro cytotoxicity screen which consists of approximately 60 human tumour cell lines against which compounds are tested at a minimum of five concentrations each differing 10-fold. A 48 hour continuous exposure protocol is used, where cell viability or growth is estimated with an SRB protein assay.
(§4) The test compounds were evaluated against approximately 60 human tumour cell lines. The NCI screening procedures were described in detail by Monks and co-workers (Monks, A et al., Journal of the National Cancer Institute, 1991, 83, 757). Briefly, cell suspensions were diluted according to the particular cell type and the expected target cell density (5000-40,000 cells per well based on cell growth characteristics), and added by pipette (100 μL) into 96-well microtitre plates. The cells were allowed a preincubation period of 24 hours at 37° C. for stabilisation. Dilutions at twice the intended test concentration were added at time zero in 100 μL aliquots to the wells. The test compounds were evaluated at five 10-fold dilutions (10^−4, 10^−5, 10^−6, 10^−7 and 10^−[…]). The test compounds were incubated for 48 hours in 5% CO2 atmosphere and 100% humidity. The cells were then assayed using the sulphorhodamine B assay. A plate reader was used to read the optical densities and a microcomputer processed the readings into LC50 values, which is the dosage required to kill half of the cells.

[8] = tested on: NCI-H522; experiment: NCI in vitro cytotoxicity screen; type: cell-based; conditions: Homo sapiens, NCI-H522, 48 h, read-out: LC50
Experimental: as §3, §4

[9] = tested on: RXF 393; experiment: NCI in vitro cytotoxicity screen; type: cell-based; conditions: Homo sapiens, RXF 393, 48 h, read-out: LC50
Experimental: as §3, §4

[10] = Homo sapiens, SK-OV-3, 96 h, read-out: IC50 Skov3, 96 hours, sulphorhodamine B
[11] = Homo sapiens, CH1cisR, 96 h, read-out: IC50 CH1cisR, cisplatin-resistant, 96 hours, sulphorhodamine B
[12] = Homo sapiens, CH1, 96 h, read-out: IC50 CH1, 96 hours, sulphorhodamine B
[13] = Homo sapiens, A2780cisR, 96 h, read-out: IC50 A2780cisR, cisplatin-resistant, 96 hours, sulphorhodamine B
[14] = Homo sapiens, A2780, 96 h, read-out: IC50 A2780, 96 hours, sulphorhodamine B

SMILES | IC50 [1, 10] [nM] | IC50 [2, 11] [nM] | IC50 [3, 12] [nM] | IC50 [4, 13] [nM] | IC50 [5, 14] [nM] | also measured
COc1cc2c(cc1OCCCNC(=O)OCC1c3ccccc3-c3ccccc31)N=C[C@@H]1CCCN1C2=O [UP2088 (205), (11aS) 8-(N-9-fluorenylmethoxycarbonyl)aminopropyloxy-7-methoxy-1,2,3,11a-tetrahydro-5H-pyrrolo[2,1-c][1,4]benzodiazepin-5-one] |  |  |  |  |  | IC50 ([1]; 96 hours, sulphorhodamine B, read-out: IC50 Skov3): 14000 nM; IC50 ([2]; cisplatin-resistant, 96 hours, sulphorhodamine B, read-out: IC50 CH1cisR): 16000 nM; IC50 ([3]; 96 hours, sulphorhodamine B, read-out: IC50 CH1): 12000 nM; IC50 ([4]; cisplatin-resistant, 96 hours, sulphorhodamine B, read-out: IC50 A2780cisR): 8500 nM; IC50 ([5]; 96 hours, sulphorhodamine B, read-out: IC50 A2780): 11000 nM
COC(=O)CC1=CN2C(=O)c3cc(OC)c(OCCCOc4cc5c(cc4OC)C(=O)N4C=C(CC(=O)OC)C[C@H]4C=N5)cc3N=C[C@@H]2C1 [UP2053 (56)] | 100 | 11 | 11.5 | 58 | 5.4 | 
COc1cc2c(c(OC)c1OC)N=C[C@@H]1CCCN1C2=O [UP2086 (120), 7,8,9-Trimethoxy-1,2,3,11a-tetrahydro-5H-pyrrolo[2,1-c][1,4]benzodiazepin-5-one] | 2500 | 2200 | 1600 | 450 | 840 | 
COc1cc2c(c(OC)c1OCCCOc1c(OC)cc3c(c1OC)N=C[C@@H]1CCCN1C3=O)N=C[C@@H]1CCCN1C2=O [UP2020 (90)] | 1600 | 2800 | 1700 | 7200 | 10000 | 
COc1cc2c(cc1OCCC(=O)N1CCCCC1)N=C[C@@H]1CCCN1C2=O [UP2006 (163)] | 23500 | 7900 | 4900 | 14500 | 3200 | 
COc1cccc2c1N=C[C@@H]1CCCN1C2=O [UP2024 (101), (11aS)-9-methoxy-1,2,3,11a-tetrahydro-5H-pyrrolo[2,1-c][1,4]benzodiazepin-5-one] | 2350 | 1250 | 1450 | 1800 | 1400 | 
C/C=C1\C[C@H]2C=Nc3cc(O)c(OC)cc3C(=O)N2C1 [Tomamycin, tomaymycin] |  |  |  |  |  | Induced ΔTa after incubation at 37° C. for 0 h ([6]; pH 7.00, 0 h): 0.97 °C; Induced ΔTa after incubation at 37° C. for 4 h ([6]; pH 7.00, 4 h): 2.38 °C; Induced ΔTa after incubation at 37° C. for 18 h ([6]; pH 7.00, 18 h): 2.56 °C
COc1cc2c(cc1OCc1ccccc1)N=C[C@@H]1CC(CC#N)=CN1C2=O [UP2074 (10)] | 520 | 270 | 105 | 430 | 155 | 
COc1cc2c(c(OC)c1OCc1ccccc1)N=C[C@@H]1CCCN1C2=O [UP2022 (143), 8-Benzyloxy-7,9-dimethoxy-1,2,3,11a-tetrahydropyrrolo[2,1-c][1,4]benzodiazepin-5-one] | 33000 | 11000 | 14000 | 16500 |  | 
COc1cc2c(cc1OCCC(=O)N1CCc3ccccc31)N=C[C@@H]1CCCN1C2=O [UP2007 (165), 1, (2,3-dihydro-1H-indolyl)-3-(7-methoxy-5-oxy(11as)-2,3,5,11a-tetrahydro-1H-benzo[e]pyrrolo[1,2-a][1,4]diazepin-8-yloxy)-1-propanone] |  |  |  |  |  | IC50 ([1]; read-out: IC50 Skov3, 96 hours, sulphorhodamine B): 5800 nM; IC50 ([2]; read-out: IC50 CH1cisR, cisplatin-resistant, 96 hours, sulphorhodamine B): 3000 nM; IC50 ([3]; read-out: IC50 CH1, 96 hours, sulphorhodamine B): 1500 nM; IC50 ([4]; read-out: IC50 A2780cisR, cisplatin-resistant, 96 hours, sulphorhodamine B): 4900 nM; IC50 ([5]; read-out: IC50 A2780, 96 hours, sulphorhodamine B): 1550 nM
Cc1ccc2c(c1O)NC(O)C1CC(/C=C/C(N)=O)=CN1C2=O (centres unmarked) [Anthramycin, anthramycin, reference compound] | 160 | 50 | 62 | 160 | 155 | 
COc1cc2c(c(OC)c1O)N=CC1CC(=O)CN1C2 (centres unmarked) [UP2021 (130), 7,9-dimethoxy-8-Hydroxy-1,2,3,11a-tetrahydropyrrolo[2,1-c][1,4]benzodiazepin-2-one] | > 100000 | 47000 | 51000 | > 100000 | > 100000 | 
COc1cc2c(cc1OC)C(=O)N1CCC[C@H]1C=N2 [UP2025 (106), (11aS)-7,8-dimethoxy-1,2,3,11a-tetrahydro-5H-pyrrolo [2,1-c][1,4]benzodiazepin-5-one] | 1700 | 110 | 82 |  | 64 | 
COc1ccc(C2=CN3C(=O)c4cc(OC)c(OC)cc4N=C[C@@H]3C2)cc1 [UP2092 (179), (11aS)-1,11a-dihydro-7,8-dimethoxy-2-(4-methoxyphenyl)-5H-pyrrolo[2,1-c][1,4]benzodiazepin-5-one] | 9.8 | 8.2 | 1.6 | 7 | 4 | 
COc1cc2c(cc1OC)C(=O)N1C=C(c3ccccc3)C[C@H]1C=N2 [UP2095 (181), (11aS)-1,11a-dihydro-7,8-dimethoxy-2-phenyl-5H-pyrrolo[2,1-c][1,4]benzodiazepin-5-one] | < 50 | < 50 | < 50 | < 50 | < 50 | 
COc1ccc(-c2ccc3c(c2)C(=O)N2CCC[C@H]2C=N3)cc1 [UP2027 (138), (11aS)-7-(4′-Methoxyphenyl)-1,2,3,11a-tetrahydro-5H-pyrrolo[2,1-c]-[1,4]benzodiazepin-5-one] |  |  |  |  |  | CC50 [7]: 9500 nM; CC50 [8]: 8000 nM; CC50 [9]: 6600 nM; IC50 ([1]; Homo sapiens, SK-OV-3, 96 hours, sulphorhodamine B, read-out: IC50 Skov3): 1700 nM; IC50 ([2]; Homo sapiens, CH1cisR, cisplatin-resistant, 96 hours, sulphorhodamine B, read-out: IC50 CH1cisR): 1150 nM; IC50 ([3]; Homo sapiens, CH1, 96 hours, sulphorhodamine B, read-out: IC50 CH1): 1350 nM; IC50 ([4]; Homo sapiens, A2780cisR, cisplatin-resistant, 96 hours, sulphorhodamine B, read-out: IC50 A2780cisR): 1550 nM; IC50 ([5]; Homo sapiens, A2780, 96 hours, sulphorhodamine B, read-out: IC50 A2780): 560 nM
C=CC1=CN2C(=O)c3cc(OC)c(OC)cc3N=C[C@@H]2C1 [UP2089 (177), (11aS)-1,11a-dihydro-7,8-dimethoxy-2-ethenyl-5H-pyrrolo[2,1-c][1,4]benzodiazepin-5-one] | 5.4 | 2.3 | < 2.5 | 4.2 | 2.2 | 
C/C=C1\C[C@H]2C=Nc3cc(OCc4ccccc4)c(OC)cc3C(=O)N2C1 [UP2100 (207)] | 81 | < 50 | < 50 | 66 | < 50 | 
